Four compounds from patent US5663172A, “Preventive agent for platelet aggregation” (Nippon Soda Co., Ltd., priority 1992, dated 1997) can be followed below.

The subject of data set [1] is platelet aggregation (rabbit platelet rich plasma). The data set is described as follows: Preventive effect on platelet aggregation in vitro (aggregometer; rabbit platelet rich plasma; ADP or collagen induced). It counts as cell-based, rabbits. The following applies: for EC50: Oryctolagus cuniculus, Platelet, rabbit PRP. Here is the method: Preventive Effect on Platelet Aggregation The preventive effect on platelet aggregation of the compounds and the complexes of the present invention was evaluated in vitro based on the preventive effect on the platelet aggregation induced by adenosine diphosphate (ADP) and collagen, which is determined by using an aggregometer, Hematracer PAT-606 produced by Nicho Bioscience Co., Ltd. Blood collected from rabbits containing 0.38% citric acid was centrifuged at 1100 rpm for 15 min. to obtain platelet rich plasm (PRP). The PRP obtained was then centrifuged at 3500 rpm for 10 min., and the supernatant obtained was provided as platelet poor plasma (PPP). PRP was diluted with PPP to adjust the concentration of platelets in PRP to a range of from 2×10^8 /ml to 5×10^8 ml. .left brkt-top.Either ADP at the final concentration of 10 μM or collagen at the final concentration of 20 μg/ml, which was prepared with SKF buffer solution (Collagen reagent Horm, Hormon Chemie) was used for the induction of platelet aggregation. .right brkt-bot. Test compound was dissolved into dimethyl sulfoxide (DMSO), then 0.5 ml of PRP prepared as described above was added to 0.5 μl of the solution, then mixed for about 3 min. Then, 0.2 ml portion was taken out of the mixture, and either ADP solution or collagen solution in an amount of 22 μl was added thereto to proceed to the measurement of platelet aggregation for 10 min. by using an aggregometer. The preventive effect on platelet aggregation was determined in the prevention rate (%) in respect to the aggregation rate in the check plot. The rate of prevention onto platelet aggregation was calculated according to the following equation. Platelet Aggregation Prevention Rate (%)=(Maximum Aggregation Rate(%) of Platelet when only DMSO is added-Maximum Aggregation Rate(%) of Platelet when Test Compound and DMSO are added).div.Maximum Aggregation Rate(%) of Platelet when only DMSO is added Based on the dose-response curve obtained according to the equation described above, EC50, a dose attaining 50% prevention of platelet aggregation, was determined.

The subject of a further data set is Mice. Description: Preventive effect on thrombus-causing death (collagen + epinephylline i.v. in mice). The class given is in vivo. The conditions noted are these: for ED50: Mus musculus, po, 0.5 h, read-out: ED50 for preventing Thrombus-causing Death. The procedure:
Preventive Effect on Thrombus-causing Death
Mice in a state without feeding for a night were orally administrated with a test compound, and then injected intravenously with collagen in an amount of 400 μg/Kg and epinephylline in an amount of 50 μg/Kg through their tail at a fixed speed in accordance with the method of DiMinno and Silver (DiMinno, G. and Silver, M. J., J. Pharmacol. Exp. Thor., 225, 57-60, 1983). After 30 min., the mice were checked to determine their survival rate and to calculate EC50, a dose attaining 50% prevention of the death of the mice. The collagen and epinephylline were used in a form of a mixed solution prepared with SKF buffer solution and saline, respectively. Test compounds were administrated to mice after preparing each suspensions of the compounds in 1% aqueous solution of gum arabic.

For data set [2], the target named is T1, Cyclic guanosine monophosphate inhibiting-type cyclic adenosine monophosphate phosphodiesterase (cAMP-PDE) (Canis lupus familiaris, UniProt A0A8I3NYE0).
T1 construct: derived from canine platelets was prepared according to the method of Thompson et. al; from tissue; host or cells: canine platelets (DEAE-cellulose fraction)
T1 sequence (A0A8I3NYE0 1-1135): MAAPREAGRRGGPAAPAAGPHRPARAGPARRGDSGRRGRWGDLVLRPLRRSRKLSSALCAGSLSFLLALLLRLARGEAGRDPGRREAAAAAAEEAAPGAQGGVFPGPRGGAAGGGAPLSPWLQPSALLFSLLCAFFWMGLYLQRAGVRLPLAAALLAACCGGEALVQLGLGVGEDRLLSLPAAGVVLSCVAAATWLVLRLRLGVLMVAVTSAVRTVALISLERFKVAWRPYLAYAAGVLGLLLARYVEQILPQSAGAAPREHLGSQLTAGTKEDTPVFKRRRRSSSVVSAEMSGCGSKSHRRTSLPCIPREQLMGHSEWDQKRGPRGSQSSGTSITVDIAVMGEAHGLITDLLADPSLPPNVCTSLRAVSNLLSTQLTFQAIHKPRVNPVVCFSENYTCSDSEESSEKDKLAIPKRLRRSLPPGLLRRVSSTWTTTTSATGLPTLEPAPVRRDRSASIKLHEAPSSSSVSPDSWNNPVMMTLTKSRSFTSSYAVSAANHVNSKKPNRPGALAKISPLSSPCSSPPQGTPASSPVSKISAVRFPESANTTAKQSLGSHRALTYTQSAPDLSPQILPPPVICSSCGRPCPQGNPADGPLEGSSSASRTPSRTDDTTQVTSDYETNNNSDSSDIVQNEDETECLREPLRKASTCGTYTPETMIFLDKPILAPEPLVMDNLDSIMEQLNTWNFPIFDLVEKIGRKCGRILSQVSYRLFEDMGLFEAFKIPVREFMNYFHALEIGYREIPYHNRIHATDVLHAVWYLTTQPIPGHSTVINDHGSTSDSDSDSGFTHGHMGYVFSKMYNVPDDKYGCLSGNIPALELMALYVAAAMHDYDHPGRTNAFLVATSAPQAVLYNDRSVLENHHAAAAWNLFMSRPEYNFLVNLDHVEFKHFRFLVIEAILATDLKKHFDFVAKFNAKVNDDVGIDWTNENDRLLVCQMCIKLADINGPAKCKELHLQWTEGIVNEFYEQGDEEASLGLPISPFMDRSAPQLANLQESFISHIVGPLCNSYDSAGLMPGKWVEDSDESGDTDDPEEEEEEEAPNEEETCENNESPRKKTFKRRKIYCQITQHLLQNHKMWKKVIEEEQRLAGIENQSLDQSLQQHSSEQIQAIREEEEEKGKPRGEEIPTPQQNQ
Description: Inhibitory effect on phosphodiesterase (cGMP inhibiting-type cAMP-PDE from canine platelets). The class given is biochemical. The conditions noted are these: for IC50: canine platelets, 1 μM [3H]-cAMP.

Data set [3] relates to Left Cardiac Ventricle (dp/dt max), heart rate, blood pressure. Description: Cardiotonic effect in anesthetized Beagle dogs (dp/dt max, heart rate, blood pressure). The following applies: for ED50: Canis lupus familiaris, cumulative 0.001 to 0.3 mg/0.1 ml/Kg, read-out: ED50 for dp/dt max in Left Cardiac Ventricle (dose attaining 50% increase). The class given is in vivo. Here is the method:
Male and female Beagle dogs in a weight range of from 10 to 15 Kg were anesthetized to provide them for the test. The dogs were anesthetized by intravenous injection with sodium pentobarbital at a dose of […], and the anesthetized condition was maintained by subsequent intravenous injection with sodium pentobarbital at a dose of 4 mg/Kg/hr. A cannula for drip infusion either of physiological saline solution or anesthetic injection was inserted into a femoral vein, and a cannula for measuring arterial blood pressure was inserted into a femoral artery via a pressure transducer. Heart rate was recorded by conducting R-wave of the electrocardiogram (ECG) to a heart beat counter. Secondary induction from electrocardiogram was measured via a bioelectricity-adapted amplifier. Internal pressure of left cardiac ventricle was measured by inserting a catheter-type pressure transducer from a left carotid into left cardiac ventricle. Differential values by time of the internal pressure in left cardiac ventricle (dp/dt max) were measured by conducting the internal pressure in left cardiac ventricle to a derivative amplifier. The test compound was cummulatively administrated at a rate of from 0.001 to 0.3 mg/0.1 ml/Kg though a cannula inserted into a femoral vein. Based on a dose-response curve obtained, ED50, a dose attaining 50% increase of the dp/dt max in left cardiac ventricle, was determined.

Data set [4] has the same test system. The data set is described as above. It counts as in vivo. The following applies: i.v. at 0.3 mg/kg (footnote *).
Setting [5] is: ADP at final concentration 10 μM, read-out: EC50 for Platelet Aggregation Prevention, ADP.
[6] abbreviates: collagen at final concentration 20 μg/ml, read-out: EC50 for Platelet Aggregation Prevention, Collagen.
Setting [7] is: i.v., anesthetized Beagle dogs, dose not stated.

SMILES strings stand for the structures. Where two headings read alike, the source gives them in different places.

The EC50 is the concentration giving half of the maximal effect. For orientation: IC50 means the concentration at which inhibition is half-maximal. On to `O=C1CCc2cc(OCCCCc3nnnn3C3CCCCC3)ccc2N1` [Cilostazol, reference compound], for which the values for the concentration giving a half-maximal response (EC50) in data set [1] (setting [5]) and in data set [1] (setting [6]) were 10.2 µM and 4.3 µM, respectively. Moreover, the ED50 with Mice worked out at 300 mg/kg; in data set [3] (iv, anesthetized Beagle dogs) it was 0.2 mg/kg. Also, the 50% inhibitory concentration (IC50) in data set [2] worked out at 0.6 µM. In addition, in data set [3] (dog, in vivo, iv), the “% Change in Blood pressure” value is given as -2.1%. For the same compound, the “% Change in Heart Rate” value in data set [3] (dog, in vivo, iv) was determined as 15%.
As to `CCCC1=C(Nc2ccc(C3=NNC(=O)CC3C)cc2)CCCC1=O` (stereo not drawn) [Compound No. 2, 4,5-dihydro-5-methyl-6-[4-[(2-propyl-3-oxo-1-cyclohexenyl)amino]phenyl]-3(2H)-pyridazinone], the EC50 in data set [1] (setting [5]) turned out to be 4.5 µM; in data set [1] (setting [6]), 3.6 µM. Further, in data set [1] (in words), the “Effect in Test Example 1 (platelet aggregation) compared with compound No. 2” value is reported as “as much as the effects given by the compound No. 2”. In addition, the ED50 turned out to be 1.7 mg/kg with Mice and 0.052 mg/kg in data set [3] (iv, anesthetized Beagle dogs). The “Effect in Test Example 2 (thrombus-causing death) compared with compound No. 2” value in the data set on Mice (in words) is “as much as the effects given by the compound No. 2”. This compound also showed a half-maximal inhibitory concentration (IC50) in data set [2] of 0.088 µM. Moreover, the “Effect in Test Example 3 (phosphodiesterase) compared with compound No. 2” value in data set [2] (in words) is recorded as “as much as the effects given by the compound No. 2”. Further, the “% Change in Blood pressure” value in data set [3] (setting [7]) is -10.0%. The “% Change in Heart Rate” value in data set [3] (setting [7]) turned out to be 9.8%. Moreover, the “Effect in Test Example 4 (cardiotonic effect) compared with compound No. 2” value in data set [3] (in words) was “as much as the effects given by the compound No. 2”.
`CCCC1=C(Nc2ccc(C3=NNC(=O)CC3)cc2)CCC1=O` [compound 3]: the EC50 in data set [1] (setting [5]) worked out at 22.8 µM; in data set [1] (setting [6]) it was 12.9 µM. In addition, the ED50 in the data set with Mice was determined as 6.8 mg/kg; in data set [3] (iv, anesthetized Beagle dogs), 0.1 mg/kg. In data set [2], it took 0.37 µM to reach half-maximal inhibition (IC50). Further, the “% Change in Blood pressure” value in data set [3] (setting [7]) is recorded as -10.5%. Also, the “% Change in Heart Rate” value in data set [3] (setting [7]) is reported as 7.5%.
For the compound `CCCC1=C(Nc2ccc(C3=NNC(=O)CC3)cc2)CCCC1=O` [Compound No. 1, 4,5-dihydro-6-[4-[(2-propyl-3-oxo-1-cyclohexenyl)amino]phenyl]-3(2H)-pyridazine], in data set [1] (setting [5]), the EC50 was found to be 29.8 µM. The EC50 in data set [1] (setting [6]) is 9.3 µM. Further, the ED50 in the data set with Mice was found to be 5 mg/kg. In data set [2], it took 0.43 µM to reach half-maximal inhibition (IC50). For the same compound, the ED50 in data set [3] (iv, anesthetized Beagle dogs) was greater than 0.3 mg/kg. In data set [4], the “% Change in Blood pressure” value is recorded as -8.6%, the “% Change in Heart Rate” value is 5.2% and the “% Change in dp/dt max in Left Cardiac Ventricle” value came out at 32%.
